Test results reported in patent publication US20230404863A1, “MICRONEEDLE PATCH AND PREPARATION METHOD THEREFOR” (SUZHOU REVEDA MEDICAL BIOTECH CO., LTD., priority 2020, published 2023).

Assay: Stability of astaxanthin in patch vs aqueous solution (UV spectrophotometer, color)
Format: physicochemical
Details: room temperature
Excerpt: Astaxanthin and resveratrol are easily oxidized and are very unstable in water and in emulsions. Due to immiscibility of resveratrol with water, it was first hydrophilically modified, and its stability in patches and that in solutions was compared. The patches were made of astaxanthin and the hydrophilically modified resveratrol, and the solutions were aqueous solutions of astaxanthin and the hydrophilically modified resveratrol at the same concentrations.

Color of astaxanthin after 6 days (in aqueous solution): became much lighter
SMILES: CC1=C(/C=C/C(C)=C/C=C/C(C)=C/C=C/C=C(C)/C=C/C=C(C)/C=C/C2=C(C)C(=O)[C@@H](O)CC2(C)C)C(C)(C)C[C@H](O)C1=O [astaxanthin]
Content of astaxanthin after 6 days vs the beginning (in aqueous solution at the same concentration, without avoiding exposure to light): significantly lower than that at the beginning
